The values below come from patent publication US9187351B2, “Water treatment” (KING TECHNOLOGY INC., priority 2004, dated 2015).

Data set [1] can be described thus: levels of dissolved silver with halogenated hydantoins and a source of silver. Type of data set: physicochemical. The source says:
Hydantoin structures are also known as complexing agents in silver-plating processes (R. J. Morrissey, U.S. Patent Application Publication no. 2005/0183961). […] While not fully understood it is believed that the aforementioned increased in solubility is due to a soluble complex or association between silver and hydantoin ring structures since it has been found the silver remains soluble to a higher degree than expected thus making more silver ions available for killing harmful microorganism.
DMH is a chemical derivative of hydantoin comprising of a hydantoin ring with two methyl groups attached at the number five position of the ring. DMH is a component of Bromochlordimethyl hydantoin (BCDMH), organic source bromine utilized for disinfecting spa water. […] Additional research performed by the Applicant seems to indicate that the DMH portion of the BCDMH molecule alone may be responsible for the increased solubility of silver. The mechanism of increased silver solubility appears to involve the formation of a DMH/silver complex that has a higher solubility in water than silver salts such as […] or silver chloride. It is should be noted that the antimicrobial activity tends to increase with soluble silver concentration.

For data set [2], the system named is bacteria in the pool. In words: 32,000 gallon outdoor pool sanitized with FROG minerals, chlorine and DMH; bacteria monitored over three months. The note with it: about 10 ppm to 12 ppm DMH added to pool treated with FROG minerals (silver chloride on limestone carrier) and chlorine; free chlorine as low as 0.1 ppm; three month period. The method, then:
A 32,000 gallon outdoor pool was sanitized using commercially available FROG™ minerals and chlorine. The FROG™ Minerals included silver chloride on a limestone carrier. In addition to the conventional sanitizing treatment using silver chloride and chlorine sufficient DMH was added to the pool to bring the DMH content of the pool to a level of about 10 ppm to 12 ppm DMH in the pool. The free chlorine, total chlorine, pH and the bacteria in the pool were monitored over a three month period. During the period both humans and animals swam in the pool.

Data set [3] deals with microbial growth. In words: single microbiological assay of the antimicrobial activity of the synthesized DMH/Ag complex. The class given is cell-based.
The conditions of data set [4]: cited from earlier work.
Setting [5] is: used in conjunction with a source of silver.

As to `CC1(C)C(=O)N(Cl)C(=O)N1Br` [BCDMH, 1-bromo-3-chloro-5,5dimethylhydantoin], the “levels of dissolved silver” value was “higher than would be anticipated” in data set [1] (combined with silver ions in spa water containing bromine) and “tend to increase levels of dissolved silver” in data set [1] (setting [5]).

With `CC1(C)NC(=O)NC1=O` [DMH, 5,5-dimethylhydantoin], the total bacteria count entry in data set [2] is given as “zero”.

On to `CC1(C)C(=O)N(Cl)C(=O)N1Cl` [DCDMH, 1,3 dichloro-5,5 dimethylhydantoin], for which the “levels of dissolved silver” value in data set [1] (setting [5]) was “tend to increase levels of dissolved silver”.

For the compound “Silver dimethylhydantoin [synthesized DMH/Ag complex]”, the “antimicrobial activity compared to the equivalent level of silver used alone” value in data set [3] (synthesized complex) was “greater antimicrobial activity”. Moreover, the “control of microbial growth” value in data set [3] (without added source of halide) was “has the potential to control microbial growth without the need for an added source of halide”.

Regarding `O=C1CNC(=O)N1` [Hydantoin], in data set [4], the solubility in water entry is “slightly soluble in water”.
